Measured values from PubChem BioAssay AID1918995 (Molecular Pharmacology Branch, DTP, NCI, 2023).

Tested on: 324938-238-R-J1-PDC complex spheroid growth, % test/control
Test: Anticancer human tumor 324938-238-R-J1-PDC patient-derived bladder carcinoma cell line growth inhibition [AhR]
Details: for IC50: curve of first compound; for viability, T/C: stronger effect = lower value
Outline: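 Complex tumor spheroids co-cultured with HUVEC and human MSC stroma; AhR antagonists tested in combination with standard-of-care and investigational agents. Top concentration at or near clinical Cmax (else 10 microM), half-log dilutions; growth expressed as percent test/control.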
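Note: spheroids exposed to agents for seven days before viability read.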

O=C(c1cc(Cc2n[nH]c(=O)c3ccccc23)ccc1F)N1CCN(C(=O)C2CC2)CC1 + Cc1ccccc1N=Nc1ccc(NC(=O)c2ccnn2C)c(C)c1
IC50 (second compound 0.1 µM): > 10 µM
IC50 (second compound 0.316 µM): > 10 µM
IC50 (second compound 1 µM): > 10 µM
IC50 (second compound 3.16 µM): > 10 µM
IC50 (second compound 10 µM): > 10 µM
viability, T/C (second compound 0.1 µM, first compound 0.0316 µM): 98%
viability, T/C (second compound 0.1 µM, first compound 0.1 µM): 105%
viability, T/C (second compound 0.1 µM, first compound 0.316 µM): 101%
viability, T/C (second compound 0.1 µM, first compound 1 µM): 103%
viability, T/C (second compound 0.1 µM, first compound 3.16 µM): 87.6%
viability, T/C (second compound 0.1 µM, first compound 10 µM): 75.5%
viability, T/C (second compound 0.316 µM, first compound 0.0316 µM): 99.4%
viability, T/C (second compound 0.316 µM, first compound 0.1 µM): 99.8%
viability, T/C (second compound 0.316 µM, first compound 0.316 µM): 91.7%
viability, T/C (second compound 0.316 µM, first compound 1 µM): 92.1%
viability, T/C (second compound 0.316 µM, first compound 3.16 µM): 89.8%
viability, T/C (second compound 0.316 µM, first compound 10 µM): 68.5%
viability, T/C (second compound 1 µM, first compound 0.0316 µM): 94.4%
viability, T/C (second compound 1 µM, first compound 0.1 µM): 100%
viability, T/C (second compound 1 µM, first compound 0.316 µM): 95.5%
viability, T/C (second compound 1 µM, first compound 1 µM): 90.6%
viability, T/C (second compound 1 µM, first compound 3.16 µM): 78.7%
viability, T/C (second compound 1 µM, first compound 10 µM): 72.3%
viability, T/C (second compound 3.16 µM, first compound 0.0316 µM): 84.5%
viability, T/C (second compound 3.16 µM, first compound 0.1 µM): 79%
viability, T/C (second compound 3.16 µM, first compound 0.316 µM): 87.3%
viability, T/C (second compound 3.16 µM, first compound 1 µM): 84.5%
viability, T/C (second compound 3.16 µM, first compound 3.16 µM): 74.4%
viability, T/C (second compound 3.16 µM, first compound 10 µM): 65.2%
viability, T/C (second compound 10 µM, first compound 0.0316 µM): 84.6%
viability, T/C (second compound 10 µM, first compound 0.1 µM): 83.4%
viability, T/C (second compound 10 µM, first compound 0.316 µM): 81.2%
viability, T/C (second compound 10 µM, first compound 1 µM): 85.1%
viability, T/C (second compound 10 µM, first compound 3.16 µM): 72.4%
viability, T/C (second compound 10 µM, first compound 10 µM): 65.9%
